PMC6429459, “The HslV Protease from Leishmania major and Its Activation by C-terminal HslU Peptides” (International Journal of Molecular Sciences, 2019)
* marks the point of attachment. AMC = Cc1cc(=O)oc2cc(N*)ccc12; Cbz = O=C(OCc1ccccc1)*

Key:
LmHslV = assay: Degradation of fluorogenic substrates by LmC12-U2-activated LmHslV; type: biochemical, Leishmania major; conditions: LmHslV 75.2 nM, 37 °C, substrate 100 μM, activating peptide LmC12-U2 500 μM; Figure 2; in words
Experimental: Activity assay: The peptidase activity of recombinant LmHslV was assessed by measuring the fluorescence of AMC released after hydrolysis of the fluorogenic substrates Z-GGL-AMC or JMV4482 (Z-EVNL-AMC), 100 µM. LmHslV activation was obtained by addition of activating peptides (see type and concentration in the figure legends). Activity buffer: 25 mM Tris-HCl pH 8.0, 1 mM DTT, 0.5 mM EDTA and 5 mM MgCl2. Most of the experiments were performed in a final volume of 50 µL in black 96-well microplates (Fisher Scientific, Illkirch, France. Fluorescence was measured using a spectrofluorimeter (BIO-TEK Instrument, Inc., Winooski, VT, USA): filters 360/340 for excitation and 460/440 for emission.
Figure 2 Degradation of different fluorogenic substrates by LmHslV. LmHslV (75.2 nM) was incubated at 37 °C with different fluorogenic substrates (100 μM) in the presence of the activating peptide LmC12-U2 (500 μM). The fluorescence of the free AMC group, proportional to the activity of the sample, was measured at 2 min. intervals. With each substrate, no activity was measured in the absence of activating peptide: for the sake of clarity, only the negative control values obtained with the substrate ZGGL-AMC are shown.

[1] = molecular target: HslV from E. coli (EcHslV) (Escherichia coli, UniProt P0A7B8); conditions: compared with Z-GGL-AMC; in words
HslV from E. coli (EcHslV), sequence (P0A7B8 2-176): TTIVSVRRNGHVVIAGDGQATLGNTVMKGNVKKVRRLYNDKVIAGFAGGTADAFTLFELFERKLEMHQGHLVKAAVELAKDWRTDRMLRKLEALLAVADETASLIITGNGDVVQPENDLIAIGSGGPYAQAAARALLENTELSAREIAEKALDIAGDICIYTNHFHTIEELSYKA
Source text: A further improvement to our assays was the development of a novel fluorogenic peptide substrate, which was more convenient to use than Z-GGL-AMC. Indeed, although the substrate Z-GGL-AMC mostly used in the literature for the studies of HslV has proven useful, its use is limited by its poor solubility in aqueous solutions [6, 36]. In view of finding alternative substrates for LmHslV, we tested a variety of possible fluorogenic substrates (commercial or home-made) including Suc-LLVY-AMC, a classical substrate used for the eukaryotic proteasome, in the presence of the reference activator peptide LmC12-U2.

[2] = Solubility in aqueous assay solutions (observation); conditions: aqueous assay conditions, peptide concentrations in the millimolar range; in words

Substance | Degradation of fluorogenic substrate by activated LmHslV (LmHslV) | Degradation of fluorogenic substrate by EcHslV [1] | Solubility of activating peptide [2]
Cbz-EVNL-{AMC} (SMILES Cc1cc(=O)oc2cc(NC(=O)[C@H](CC(C)C)NC(=O)[C@H](CC(N)=O)NC(=O)[C@@H](NC(=O)[C@H](CCC(=O)O)NC(=O)OCc3ccccc3)C(C)C)ccc12) [Z-EVNL-AMC] | more efficiently degraded by LmHslV than Z-GGL-AMC and Suc-LLVY-AMC | more efficiently degraded by HslV from E. coli (EcHslV) than Z-GGL-AMC | –
H-VNLAKYLL-OH [Compound 3] | – | – | not soluble enough for reliable results
